According to patent publication US8067441B2, “Use of collismycin and derivatives thereof as oxidative stress inhibitors” (Neuropharma, S.A., priority 2005, dated 2011):

Legend:
Type in all cases: cell-based
[1] = system: SH-SY5Y human neuroblastoma cells; test: Protection against hydrogen peroxide-induced cell death (LDH); settings: 1 h preincubation, H2O2 100 μM, 24 h
Method: The aim of this assay is to determine the neuroprotective effect of the compounds of formula (I), when human neuroblastoma cells are exposed to oxidative stress induced by hydrogen peroxide, which is highly deleterious to the cell and its accumulation causes oxidation of cellular targets such as DNA, proteins, and lipids leading to mutagenesis and cell death.
SH-SY5Y human neuroblastoma cells are seeded into 96-well culture plate at a density of 10^4 cells/well. Cells are exposed to the different concentrations of the compound one hour before the treatment with H2O2 100 μM during 24 h. 5 mM NAC, a known anti-oxidant agent was used as a positive control, and preincubated 1 hour before the treatment with H2O2. After 24 h, the medium is removed and cells attached to the bottom of the well are lysed by adding 50 μl of Triton X-100 1% in Krebs-Hepes during 5 minutes at room temperature.
Cell survival was determined in parallel in the same assay.

[2] = system: SH-SY5Y human neuroblastoma cells; test: Protection against 6-OHDA-induced cell death, condition A (2 h preincubation, 10% serum); settings: 6-OHDA 75 μM, 16 h, medium with 10% foetal bovine serum
Source text: (§1) The aim of this experiment is to determine the protective effect of the compounds of formula (I) against the toxicity caused by 6-hydroxydopamine (6-OHDA). This toxin induces a cell death similar to which occurs in Parkinson's disease, destroying dopaminergic neurons (“MPTP and 6-hydroxydopamine-induced neurodegeneration as models for Parkinson's disease: neuroprotective strategies”; Grunblatt E, et al.; J Neurol. 2000 April; 247 Suppl 2:1195-102).
(§2) Cells are exposed to the treatment with 6-OHDA and, finally, cell death is measured by LDH quantification. As positive control we used NAC. The assay is performed in two different experimental conditions:
A) NAC and the compound of formula (I) are preincubated during 2 hours before the treatment with 6-OHDA 75 μM during 16 hours. The assay is performed in medium containing 10% Foetal bovine serum.

[3] = system: SH-SY5Y human neuroblastoma cells; test: Protection against 6-OHDA-induced cell death, condition B (1 h preincubation, no serum); settings: 6-OHDA 50 μM, 24 h, medium without fetal bovine serum
Source text: as §1, §2
B) NAC and the compound of formula (I) are preincubated during 1 hour before the treatment with 6-OHDA 50 μM during 24 hours. The assay is performed in medium without any fetal bovine serum.

SMILES | lowest concentration at which neuroprotective effects were detected [1] [µM] | minimum concentration at which neuroprotective [2] [µM] | minimum concentration showing neuroprotective effect [3] [µM] | neuroprotective activity against 6-OHDA (concentration not given) [2]
COc1cc(/C=N/O)nc(-c2ccccn2)c1 [Caerulomycin A] | 0.05 | 1 | 1 | 
COc1cc(-c2ccccn2)nc(CO)c1SC [Collismycin C] | 10 |  | 10 | neuroprotective activity
O/N=C/c1nc(-c2ccccn2)ccc1F [Compound 2, 5-Fluoro-[2,2′]bipyridinyl-6-carbaldehyde oxime] | 0.5 |  | 0.5 | neuroprotective activity
CSc1cc(C#N)nc(-c2ccccn2)c1 [Compound 1, 4-Methylsulfanyl-[2,2′]bipyridinyl-6-carbonitrile] | 5 |  |  | 
O/N=C/c1nc(-c2cnccn2)ccc1F [Compound 3, 3-Fluoro-6-pyrazin-2-yl-pyridine-2-carbaldehyde oxime] | 10 |  |  | neuroprotective activity
